In ChEMBL document CHEMBL5113471 (Eur J Med Chem, 2022):
pIC50: −log10 of the molar value. One block for each compound: values may come before it. Calls of active or inactive are those of the source. No cut-off for these calls is given here.

Legend:
[1] = molecular target: Poly [ADP-ribose] polymerase 1 (Homo sapiens, UniProt P09874); test: Inhibition of human recombinant PARP1 in presence of NAD+ by ELISA
[2] = system: CAPAN-1; test: Antiproliferative activity against BRCA2-deficient human CAPAN-1 cells assessed as inhibition of cell proliferation incubated for 7 days by CellTiter-Glo assay; format: functional, cell-based; conditions: CAPAN-1, 168 h
[3] = Antiproliferative activity against BRCA1-deficient human UWB1289 cells assessed as inhibition of cell proliferation incubated for 7 days by SRB assay; format: functional, cell-based; conditions: UWB1289, 168 h
[4] = Antiproliferative activity against human UWB1289 cells with restoration of BRCA1 expression assessed as inhibition of cell proliferation incubated for 7 days by SRB assay; format: functional, cell-based; conditions: UWB1289, 168 h
[5] = system: MDA-MB-436; test: Antiproliferative activity against BRCA1-deficient human MDA-MB-436 cells assessed as inhibition of cell proliferation incubated for 7 days by CCK-8 assay; format: functional, cell-based; conditions: MDA-MB-436, 168 h
[6] = system: CAPAN-1; test: Induction of apoptosis in human CAPAN-1 cells assessed as early apoptotic cells at 1 uM incubated for 96 hrs by AnnexinV-FITC/PI staining based flow cytometry (reference value: 5.08%); format: functional
[7] = system: CAPAN-1; test: Induction of apoptosis in human CAPAN-1 cells assessed as early apoptotic cells at 5 uM incubated for 96 hrs by AnnexinV-FITC/PI staining based flow cytometry (reference value: 5.08%); format: functional
[8] = system: CAPAN-1; test: Induction of apoptosis in human CAPAN-1 cells assessed as early apoptotic cells at 10 uM incubated for 96 hrs by AnnexinV-FITC/PI staining based flow cytometry (reference value: 5.08%); format: functional
[9] = system: MDA-MB-436; test: Induction of DNA double strand breaks in human MDA-MB-436 cells assessed as increase in gamma-H2AX level incubated for 48 hrs by western blot analysis; format: functional, cell-based; conditions: dose 0.1-1 µM, DDE = dose-dependent effect
[10] = system: CAPAN-1; test: Induction of apoptosis in human CAPAN-1 cells assessed as late apoptotic cells at 1 uM incubated for 96 hrs by AnnexinV-FITC/PI staining based flow cytometry (reference value: 8.99%); format: functional
[11] = system: CAPAN-1; test: Induction of DNA double strand breaks in human CAPAN-1 cells assessed as increase in gamma-H2AX level incubated for 48 hrs by western blot analysis; format: functional, cell-based; conditions: dose 0.1-1 µM, DDE = dose-dependent effect
[12] = system: CAPAN-1; test: Induction of apoptosis in human CAPAN-1 cells assessed as late apoptotic cells at 10 uM incubated for 96 hrs by AnnexinV-FITC/PI staining based flow cytometry (reference value: 8.99%); format: functional
[13] = system: CAPAN-1; test: Induction of DNA double strand breaks in human CAPAN-1 cells assessed as increase in gamma-H2AX level at 10 uM incubated for 48 hrs by immunofluorescence-based laser confocal microscopy; format: functional, cell-based
[14] = system: CAPAN-1; test: Induction of apoptosis in human CAPAN-1 cells assessed as late apoptotic cells at 5 uM incubated for 96 hrs by AnnexinV-FITC/PI staining based flow cytometry (reference value: 8.99%); format: functional
[15] = system: CAPAN-1; test: Induction of DNA double strand breaks in human CAPAN-1 cells assessed as increase in Chk1 phosphorylation at Ser345 residue incubated for 48 hrs by western blot analysis; format: functional, cell-based; conditions: dose 0.1-1 µM
[16] = Cytotoxicity against human IMR-90 cells expressing wild type BRCA-1 assessed as inhibition of cell proliferation incubated for 7 days by SRB assay; format: toxicity, cell-based
[17] = Cytotoxicity against human WI-38 cells expressing wild type BRCA1 assessed as inhibition of cell proliferation incubated for 7 days by SRB assay; format: toxicity, cell-based
[18] = system: CAPAN-1; test: Induction of cell cycle arrest at G2/M phase in human CAPAN-1 cells incubated for 48 hrs by propidium iodide staining based flow cytometry; format: functional; conditions: dose 1-10 µM, DDE = dose-dependent effect
[19] = system: MDA-MB-436; test: Induction of DNA double strand breaks in human MDA-MB-436 cells assessed as increase in Chk1 phosphorylation at Ser345 residue incubated for 48 hrs by western blot analysis; format: functional, cell-based; conditions: dose 0.1-1 µM

Poly [ADP-ribose] polymerase 1, sequence (P09874 whole entry): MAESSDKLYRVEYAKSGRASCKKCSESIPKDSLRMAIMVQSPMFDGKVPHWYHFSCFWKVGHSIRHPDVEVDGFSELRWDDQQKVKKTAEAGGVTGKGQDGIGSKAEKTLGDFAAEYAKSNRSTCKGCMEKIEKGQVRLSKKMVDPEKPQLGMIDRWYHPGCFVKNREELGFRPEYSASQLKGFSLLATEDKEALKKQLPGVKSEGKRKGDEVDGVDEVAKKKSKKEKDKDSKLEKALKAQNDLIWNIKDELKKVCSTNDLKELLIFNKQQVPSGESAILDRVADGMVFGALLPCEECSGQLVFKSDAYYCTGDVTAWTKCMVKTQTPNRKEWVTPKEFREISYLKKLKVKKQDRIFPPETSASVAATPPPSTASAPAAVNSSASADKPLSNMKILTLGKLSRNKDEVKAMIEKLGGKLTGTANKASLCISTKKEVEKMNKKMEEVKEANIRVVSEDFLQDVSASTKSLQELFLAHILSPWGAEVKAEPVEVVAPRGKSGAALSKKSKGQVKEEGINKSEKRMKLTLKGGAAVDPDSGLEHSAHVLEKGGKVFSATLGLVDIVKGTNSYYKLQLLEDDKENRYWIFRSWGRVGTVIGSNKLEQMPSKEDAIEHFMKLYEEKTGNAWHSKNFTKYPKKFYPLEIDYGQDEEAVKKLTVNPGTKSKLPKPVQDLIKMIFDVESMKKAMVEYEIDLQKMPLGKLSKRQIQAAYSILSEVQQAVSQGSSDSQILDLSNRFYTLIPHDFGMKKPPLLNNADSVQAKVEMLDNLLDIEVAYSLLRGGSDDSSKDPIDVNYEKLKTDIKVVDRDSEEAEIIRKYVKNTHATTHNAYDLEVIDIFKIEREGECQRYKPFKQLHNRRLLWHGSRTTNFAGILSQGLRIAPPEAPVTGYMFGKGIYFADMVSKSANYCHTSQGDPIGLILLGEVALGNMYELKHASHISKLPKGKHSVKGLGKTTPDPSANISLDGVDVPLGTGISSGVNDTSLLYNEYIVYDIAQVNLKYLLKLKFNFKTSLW

- pIC50 [1]: 5.59
SMILES: C=C1C(=O)OC2C[C@@]3(C)CCC=C(COC(=O)c4cc(Cc5n[nH]c(=O)c6ccccc56)ccc4F)C3=CC12 (some centres not stated)

- pIC50 [1]: 7.16
SMILES: C=C1C(=O)OC2C[C@@]3(C)CCC=C(COC(=O)CC4CCN(C(=O)c5cc(Cc6n[nH]c(=O)c7ccccc67)ccc5F)CC4)C3=CC12 (some centres not stated)

- pIC50 [1]: 7.59
SMILES: C[C@H]1CCC[C@]2(C)CC3OC(=O)C(CNCC(=O)N4CCN(C(=O)c5cc(Cc6n[nH]c(=O)c7ccccc67)ccc5F)CC4)C3C=C12 (some centres not stated)

- pIC50 [1]: 7.41
SMILES: C=C1C(=O)OC2C[C@@]3(C)CCC=C(COC(=O)COCCOCCNC(=O)c4cc(Cc5n[nH]c(=O)c6ccccc56)ccc4F)C3=CC12 (some centres not stated)

- pIC50 [1]: 6.77
SMILES: C=C1C(=O)OC2C[C@@]3(C)CCC=C(CN4CCN(C(=O)c5cc(Cc6n[nH]c(=O)c7ccccc67)ccc5F)CC4)C3=CC12 (some centres not stated)

- pIC50 [1]: 8.23
- pIC50 [5]: 6.72
SMILES: C[C@]12CCC=C(CO)C1=CC1C(C2)OC(=O)C1CNCCOCCOCC(=O)N1CCN(C(=O)c2cc(Cc3n[nH]c(=O)c4ccccc34)ccc2F)CC1 (some centres not stated)
- pIC50 [2]: 6.12
- Activity [6]: 6.64%
- pIC50 [3]: 6.39
- Activity [7]: 9.68%
- Activity [15]: Active
- IC50 at 7 days [16]: 10100 nM
- Activity [8]: 12.5%
- pIC50 [4]: 5.59
- IC50 at 7 days [17]: 12000 nM
- Activity [9]: Dde
- Activity [18]: Dde
- Activity [10]: 12.6%
- Activity [11]: Dde
- Activity [19]: Active
- Activity [12]: 33.5%
- Activity [13]: Active
- Activity [14]: 16.5%

- pIC50 [1]: 6.37
SMILES: C[C@]12CCC=C(CO)C1=CC1C(C2)OC(=O)C1CNCCCCCCCC(=O)N1CCN(C(=O)c2cc(Cc3n[nH]c(=O)c4ccccc34)ccc2F)CC1 (some centres not stated)

- pIC50 [1]: 7.19
SMILES: C=C1C(=O)OC2C[C@@]3(C)CCC=C(COC(=O)CC4CCCN(C(=O)c5cc(Cc6n[nH]c(=O)c7ccccc67)ccc5F)C4)C3=CC12 (some centres not stated)

- pIC50 [1]: 6.87
SMILES: C[C@H]1CCC[C@]2(C)CC3OC(=O)C(CN4CCN(C(=O)c5cc(Cc6n[nH]c(=O)c7ccccc67)ccc5F)CC4)C3C=C12 (some centres not stated)

- pIC50 [1]: 6.89
SMILES: C=C1C(=O)OC2C[C@@]3(C)CCC=C(COC(=O)CCCC4CCN(C(=O)c5cc(Cc6n[nH]c(=O)c7ccccc67)ccc5F)CC4)C3=CC12 (some centres not stated)

- pIC50 [1]: 7.10
SMILES: C=C1C(=O)OC2C[C@@]3(C)CCC=C(COC(=O)CCC4CCN(C(=O)c5cc(Cc6n[nH]c(=O)c7ccccc67)ccc5F)CC4)C3=CC12 (some centres not stated)

- pIC50 [1]: 6.55
SMILES: C=C1C(=O)OC2C[C@@]3(C)CCC=C(COC(=O)C4CN(C(=O)c5cc(Cc6n[nH]c(=O)c7ccccc67)ccc5F)C4)C3=CC12 (some centres not stated)

- pIC50 [1]: 7.02
SMILES: C[C@]12CCC=C(CO)C1=CC1C(C2)OC(=O)C1CN1CCN(C(=O)c2cc(Cc3n[nH]c(=O)c4ccccc34)ccc2F)CC1 (some centres not stated)

- pIC50 [1]: 8.66
- pIC50 [5]: 5.66
SMILES: C=C1C(=O)OC2C[C@@]3(C)CCC=C(COC(=O)CCN(C)C(=O)c4cc(Cc5n[nH]c(=O)c6ccccc56)ccc4F)C3=CC12 (some centres not stated)
- pIC50 [2]: 5.89
- pIC50 [3]: 6.05
- pIC50 [4]: 5.92

- pIC50 [1]: 7.81
SMILES: C[C@H]1CCC[C@]2(C)CC3OC(=O)C(CNCCC(=O)N4CCN(C(=O)c5cc(Cc6n[nH]c(=O)c7ccccc67)ccc5F)CC4)C3C=C12 (some centres not stated)

- pIC50 [1]: 6.87
SMILES: C=C1C(=O)OC2C[C@@]3(C)CCC=C(COC(=O)CCNC(=O)c4cc(Cc5n[nH]c(=O)c6ccccc56)ccc4F)C3=CC12 (some centres not stated)

Further lines, the compound ahead of its results:

SMILES: C[C@H]1CCC[C@]2(C)CC3OC(=O)C(CNCCCC(=O)N4CCN(C(=O)c5cc(Cc6n[nH]c(=O)c7ccccc67)ccc5F)CC4)C3C=C12 (some centres not stated)
- pIC50 [2]: 6.00
- pIC50 [3]: 5.95
- pIC50 [4]: 5.65
- pIC50 [1]: 8.08
- pIC50 [5]: 6.70

SMILES: C[C@H]1CCC[C@]2(C)CC3OC(=O)C(CN(C)CCC(=O)N4CCN(C(=O)c5cc(Cc6n[nH]c(=O)c7ccccc67)ccc5F)CC4)C3C=C12 (some centres not stated)
- pIC50 [1]: 7.36

SMILES: O=C(c1cc(Cc2n[nH]c(=O)c3ccccc23)ccc1F)N1CCN(C(=O)C2CC2)CC1 [OLAPARIB]
- pIC50 [2]: 6.28
- Activity [6]: 4.92%
- pIC50 [3]: 6.18
- Activity [7]: 5.74%
- Activity [8]: 9.82%
- pIC50 [4]: 5.33
- Activity [9]: Dde
- Activity [10]: 10.1%
- Activity [11]: Dde
- Activity [12]: 19%
- Activity [13]: Active
- pIC50 [5]: 7.00
- Activity [14]: 12.9%

SMILES: C[C@H]1CCC[C@]2(C)CC3OC(=O)C(CNCCCCCCCC(=O)N4CCN(C(=O)c5cc(Cc6n[nH]c(=O)c7ccccc67)ccc5F)CC4)C3C=C12 (some centres not stated)
- pIC50 [2]: 6.06
- Activity [6]: 5.52%
- pIC50 [3]: 6.57
- Activity [7]: 7.21%
- Activity [15]: Active
- IC50 at 7 days [16]: 11700 nM
- Activity [8]: 35.4%
- pIC50 [4]: 5.84
- IC50 at 7 days [17]: 11800 nM
- Activity [9]: Dde
- Activity [18]: Dde
- pIC50 [1]: 8.52
- Activity [10]: 14.4%
- Activity [11]: Dde
- Activity [19]: Active
- Activity [12]: 58.2%
- Activity [13]: Active
- pIC50 [5]: 6.72
- Activity [14]: 13.9%

SMILES: C=C1C(=O)O[C@@H]2C[C@@]3(C)CCC[C@H](C)C3=C[C@H]12 [HELENINE]
- pIC50 [1]: < 5.00

SMILES: C[C@H]1CCC[C@]2(C)CC3OC(=O)C(CNOCC(=O)N4CCN(C(=O)c5cc(Cc6n[nH]c(=O)c7ccccc67)ccc5F)CC4)C3C=C12 (some centres not stated)
- pIC50 [1]: 7.70

SMILES: C[C@H]1CCC[C@]2(C)CC3OC(=O)C(CN(C)CC(=O)N4CCN(C(=O)c5cc(Cc6n[nH]c(=O)c7ccccc67)ccc5F)CC4)C3C=C12 (some centres not stated)
- pIC50 [1]: 7.69

SMILES: C[C@H]1CCC[C@]2(C)CC3OC(=O)C(CNCCOCCOCCOCC(=O)N4CCN(C(=O)c5cc(Cc6n[nH]c(=O)c7ccccc67)ccc5F)CC4)C3C=C12 (some centres not stated)
- pIC50 [1]: 7.13

SMILES: C[C@H]1CCC[C@]2(C)CC3OC(=O)C(CN(C)CCCC(=O)N4CCN(C(=O)c5cc(Cc6n[nH]c(=O)c7ccccc67)ccc5F)CC4)C3C=C12 (some centres not stated)
- pIC50 [1]: 7.37

SMILES: C[C@]12CCC=C(C=O)C1=CC1C(C2)OC(=O)C1CNCCOCCOCC(=O)N1CCN(C(=O)c2cc(Cc3n[nH]c(=O)c4ccccc34)ccc2F)CC1 (some centres not stated)
- pIC50 [1]: 7.05
